Counter-ions that a name gives are not always drawn.
Tests used:
11βHSD1 = target: T1, 11βHSD1 (Homo sapiens, UniProt P28845); test: 11βHSD1 Scintillation Proximity Assay (SPA), 384-well format; type: biochemical; conditions: recombinant 11βHSD1 produced in S. cerevisiae; 3H-cortisone and NADPH; cortisol formed measured by SPA
T1 construct: made in house; host or cells: S. cerevisiae yeast
Method: The compounds according to the invention have undergone pharmacological tests for determining their inhibitory effect on the enzyme 11βHSD1, which is involved in lipid metabolism and in glucose metabolism.
These tests consisted of measuring the inhibitory activity in vitro of compounds of the invention on the enzyme 11βHSD1 using a Scintillation Proximity Assay (SPA) in 384-well format. The recombinant 1βHSD1 protein was produced in S. cerevisiae yeast. The reaction was carried out by incubating the enzyme in the presence of ^3H-cortisone and NADPH, in the absence or in the presence of increasing concentration of inhibitor. SPA beads coupled to an antimouse antibody, preincubated with an anticortisol antibody, made it possible to measure the amount of cortisol formed during the reaction.
The inhibitory activity with respect to the enzyme 11βHSD1 is given by the concentration that inhibits 50% of the activity of 11βHSD1 (IC50).

healthy volunteers = conditions: after seven days of treatment, healthy volunteers (Rauz et al. 2001); cited from earlier work

T1 sequence (P28845 whole entry): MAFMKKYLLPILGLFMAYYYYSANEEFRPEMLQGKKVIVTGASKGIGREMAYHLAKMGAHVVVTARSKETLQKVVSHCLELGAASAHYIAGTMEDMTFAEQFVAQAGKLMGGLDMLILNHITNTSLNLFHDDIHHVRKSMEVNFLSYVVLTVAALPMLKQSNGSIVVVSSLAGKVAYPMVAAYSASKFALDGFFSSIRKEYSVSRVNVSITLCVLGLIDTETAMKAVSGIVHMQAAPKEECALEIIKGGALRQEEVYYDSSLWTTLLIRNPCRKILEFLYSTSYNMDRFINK

Compound	melting point [°C]	IC50 (11βHSD1) [nM]	IOP is reduced by (healthy volunteers) [%]
NC(=O)[C@]12CC3CC(C1)[C@H](NC(=O)N1CCN(c4ccc(N5CCC(N6CC[C@@H](O)C6)CC5)cn4)c4ccccc41)C(C3)C2 (as salt: HCl) [Compound 9, Trans 4-[4-((R)-3-hydroxy-pyrrolidin-1-yl)-3,4,5,6,-tetrahydro-2H-[1,3′]bipyridinyl-6′-yl]-3,4-dihydro-2H-quinoxaline-1-carboxylic acid (5-carbamoyl-adamantan-2-yl)-amide]	191		
NC(=O)C12CC3CC(C1)C(NC(=O)N1CCN(c4ccc(N5CCC(N6CCC(F)(F)C6)CC5)cn4)c4ccccc41)C(C3)C2 (stereo not drawn) (as salt: HCl) [Compound 10, Trans 4-[4-(3,3-difluoro-pyrrolidin-1-yl)-3,4,5,6-tetrahydro-2H-[1,3′]bipyridinyl-6′-yl]-3,4-dihydro-2H-quinoxaline-1-carboxylic acid (5-carbamoyl-adamantan-2-yl)-amide]	196		
NC(=O)C12CC3CC(C1)C(NC(=O)N1CCN(c4ccc(N5CCC(N6CCC[C@@H]6CO)CC5)cn4)c4ccccc41)C(C3)C2 (stereo in doubt) [Compound 6, Trans 4-[4-((R)-2-hydroxymethyl-pyrrolidin-1-yl)-3,4,5,6-tetrahydro-2H-[1,3′]bipyridinyl-6′-yl]-3,4-dihydro-2H-quinoxaline-1-carboxylic acid (5-carbamoyl-adamantan-2-yl)-amide]		4	
NC(=O)C12CC3CC(C1)C(NC(=O)N1CCN(c4ccc(N5CCC(N6CCC[C@H]6CO)CC5)cn4)c4ccccc41)C(C3)C2 (stereo in doubt) [Compound 7, Trans 4-[4-((S)-2-hydroxymethyl-pyrrolidin-1-yl)-3,4,5,6-tetrahydro-2H-[1,3′]bipyridinyl-6′-yl]-3,4-dihydro-2H-quinoxaline-1-carboxylic acid (5-carbamoyl-adamantan-2-yl)-amide]		3	
NC(=O)C12CC3CC(C1)C(NC(=O)N1CCN(c4ccc(N5CCC(N6CC[C@H](O)C6)CC5)cn4)c4ccccc41)C(C3)C2 (stereo in doubt) [Compound 8, Trans 4-[4-((S)-3-hydroxy-pyrrolidin-1-yl)-3,4,5,6-tetrahydro-2H-[1,3′]bipyridinyl-6′-yl]-3,4-dihydro-2H-quinoxaline-1-carboxylic acid (5-carbamoyl-adamantan-2-yl)-amide]		6	
C[Si](C)(C)CN1CCN(c2ccc(N3CCN(C(=O)NC4C5CC6CC4CC(O)(C6)C5)c4ccccc43)nc2)CC1 (stereo not drawn) [Compound 1, Trans 4-[5-(4-trimethylsilanylmethyl-piperazin-1-yl)-pyridin-2-yl]-3,4-dihydro-2H-quinoxaline-1-carboxylic acid (5-hydroxy-adamantan-2-yl)-amide]		7	
CC(C)(C)ON=C1CCN(c2ccc(N3CCN(C(=O)N[C@H]4C5CC6CC4C[C@@](O)(C6)C5)c4ccccc43)nc2)CC1 [Compound 2, Trans 4-(4-tert-butoxyimino-3,4,5,6-tetrahydro-2H-[1,3′]bipyridinyl-6′-yl)-3,4-dihydro-2H-quinoxaline-1-carboxylic acid (5-hydroxy-adamantan-2-yl)-amide]	110 to 113	23	
C[Si](C)(C)CCS(=O)(=O)N1CCN(c2ccc(N3CCN(C(=O)NC4C5CC6CC4CC(O)(C6)C5)c4ccccc43)nc2)CC1 (stereo not drawn) [Compound 3, Trans 4-{5-[4-(2-trimethylsilanyl-ethanesulfonyl)-piperazin-1-yl]-pyridin-2-yl}-3,4-dihydro-2H-quinoxaline-1-carboxylic acid (5-hydroxy-adamantan-2-yl)-amide]	107 to 120	10	
NC(=O)[C@]12CC3CC(C1)[C@H](NC(=O)N1CCN(c4ccc(N5CCN(CC6CC6(F)F)CC5)cn4)c4ccccc41)C(C3)C2 (stereo partly drawn) [Compound 4, Trans 4-{5-[4-(2,2-difluoro-cyclopropylmethyl)-piperazin-1-yl]-pyridin-2-yl}-3,4-dihydro-2H-quinoxaline-1-carboxylic acid (5-carbamoyl-adamantan-2-yl)-amide]	206	3	
NC(=O)[C@]12CC3CC(C1)[C@H](NC(=O)N1CCN(c4ccc(N5CCC(N6CCS(=O)(=O)CC6)CC5)cn4)c4ccccc41)C(C3)C2 [Compound 5, Trans 4-[4-(1,1-dioxo-1lambda6-thiomorpholin-4-yl)-3,4,5,6-tetrahydro-2H-[1,3′]bipyridinyl-6′-yl]-3,4-dihydro-2H-quinoxaline-1-carboxylic acid (5-carbamoyl-adamantan-2-yl)-amide]	160 to 200	4	
NC(=O)[C@]12CC3CC(C1)[C@H](NC(=O)N1CCN(c4ccc(N5CCC(N6CC[C@@H](O)C6)CC5)cn4)c4ccccc41)C(C3)C2 [Compound 9, Trans 4-[4-((R)-3-hydroxy-pyrrolidin-1-yl)-3,4,5,6,-tetrahydro-2H-[1,3′]bipyridinyl-6′-yl]-3,4-dihydro-2H-quinoxaline-1-carboxylic acid (5-carbamoyl-adamantan-2-yl)-amide]		2	
NC(=O)C12CC3CC(C1)C(NC(=O)N1CCN(c4ccc(N5CCC(N6CCC(F)(F)C6)CC5)cn4)c4ccccc41)C(C3)C2 (stereo not drawn) [Compound 10, Trans 4-[4-(3,3-difluoro-pyrrolidin-1-yl)-3,4,5,6-tetrahydro-2H-[1,3′]bipyridinyl-6′-yl]-3,4-dihydro-2H-quinoxaline-1-carboxylic acid (5-carbamoyl-adamantan-2-yl)-amide]		2	
Cl.NC(=O)[C@]12CC3CC(C1)[C@H](NC(=O)N1CCN(c4ccc(N5CCC6(CC5)CC6(F)F)cn4)c4ccccc41)C(C3)C2 [Compound 11, Trans 4-[5-(1,1-difluoro-6-aza-spiro[2.5]oct-6-yl)-pyridin-2-yl]-3,4-dihydro-2H-quinoxaline-1-carboxylic acid (5-carbamoyl-adamantan-2-yl)-amide]	134 to 170	3	
NC(=O)[C@]12CC3CC(C1)[C@H](NC(=O)N1CCN(c4ccc(N5CCC6(CC5)CC6C(=O)O)cn4)c4ccccc41)C(C3)C2 (stereo partly drawn) [Compound 12, trans-6-{6-[4-(5-Carbamoyl-adamantan-2-ylcarbamoyl)-3,4-dihydro-2H-quinoxalin-1-yl]-pyridin-3-yl}-6-aza-spiro[2.5]octane-1-carboxylic acid]	145 to 160	6	
C[Si]1(c2ccccc2)CCN(c2ccc(N3CCN(C(=O)N[C@H]4C5CC6CC4C[C@@](C(N)=O)(C6)C5)c4ccccc43)nc2)CC1 [Compound 13, Trans 4-[5-(4-methyl-4-phenyl-[1,4]azasilinan-1-yl)-pyridin-2-yl]-3,4-dihydro-2H-quinoxaline-1-carboxylic acid (5-carbamoyl-adamantan-2-yl)-amide]	106 to 108	25	
C[Si]1(C)CCN(c2ccc(N3CCN(C(=O)NC4C5CC6CC4CC(C(N)=O)(C6)C5)c4ccccc43)nc2)CC1 (stereo not drawn) [Compound 14, Trans 4-[5-(4,4-dimethyl-[1,4]azasilinan-1-yl)-pyridin-2-yl]-3,4-dihydro-2H-quinoxaline-1-carboxylic acid (5-carbamoyl-adamantan-2-yl)-amide]	213 to 216	12	
CC1(C)[C@@H](OC(=O)CCC(=O)O)CC[C@]2(C)[C@H]3C(=O)C=C4[C@@H]5C[C@@](C)(C(=O)O)CC[C@]5(C)CC[C@@]4(C)[C@]3(C)CC[C@@H]12 [carbenoxolone]			18

From patent publication US8530473B2, “Tetrahydroquinoxaline urea derivatives as modulators of 11β-hydroxysteroid dehydrogenase type 1” (Sanofi, priority 2009, dated 2013)
